Test results reported in patent US20230119324A1, “EGFR INHIBITION TRIGGERS AN ADAPTIVE RESPONSE BY CO-OPTING ANTIVIRAL SIGNALING PATHWAYS IN LUNG CANCER” (The United States Government as represented by the …, priority 2020, published 2023).

Tests used:
[1] = tested on: EGFR mutant NSCLC cell lines; experiment: AlamarBlue cell viability assay, EGFR mutant NSCLC cell lines; type: cell-based; details: for effect on pro-survival effect of exogenous Type I IFNs under EGFR inhibition: EGFR mutant lines, 50 ng/mL IFNα1 or IFNβ1, 72 h, Etanercept 50 µg/mL, BMS-345541 0.1 µM
Protocol: (§1) Cell viability assays were conducted with AlamarBlue Cell Viability Reagent from ThermoFisher (Waltham, MA), following the manufacturer’s protocol. Cells were cultured in Coming (Corning, NY) 96-well black plates with clear bottom and detected by the POLARstar Omega Microplate Reader (BMG LABTECH) (excitation at 544 nm and emission at 590 nm). At least 3 independent experiments were done.

[2] = tested on: Type I interferons (IFNα1, IFNβ1); experiment: qPCR and ELISA for Type I interferons in NSCLC cell lines; type: cell-based, human; details: BX795 1 µM, BMS-345541 0.1 µM
Protocol: Total RNA was isolated by TRIzol Reagent (Fisher Scientific). cDNA Reverse Transcription was performed by using High-Capacity cDNA Reverse Transcription Kit (Applied Biosystems). PCR primers were synthesized by IDT (Coralville, IA). Each PCR reaction was carried out in triplicate in a 20 µl volume using SYBR Green Master Mix (Applied Biosystems) for 15 minutes at 95° C. for initial denaturing, followed by 40 cycles of 95° C. for 15 s and 60° C. for 60 s in ViiA 7 Real-Time PCR System (Applied Biosystems). At least three independent experiments were done. Values for each gene were normalized to expression levels of ACTB (β-Actin) mRNA. Primer sequences were as follows.
To detect IFNα and IFNβ levels in medium, cells were cultured in serum free medium and treated with indicated drugs for 48 hours. Supernatant was then collected and concentrated using a Pierce protein concentrator (Thermo-Fisher). To test IFNα and IFNβ in lysates, cell and tumor lysates were extracted using RIPA buffer. Total protein concentrations were determined by Pierce BCA Protein Assay Kit (Fisher Scientific). Then, the levels of IFNα and IFNβ protein were measured by ELISA using human IFNα ELISA kit (41100) and human IFNβ ELISA kit (41440), from PBL Assay Science (Piscataway, NJ) according to the manufacturer’s protocol.
ATCB (β-Actin) expression was the loading control.
IFNα1 and IFNβ1 mRNA levels were detected by qPCR with β-Actin as the loading control.
IFNα1 and IFNβ1 mRNA levels were detected by qPCR. β-Actin was used as the loading control. Data refers to mean ± S.E.M, n=3 independent repeated experiments. One-way ANOVA with Dunnett’s test was used to determine adjusted p value for comparison between untreated and each treated sample. *: p<0.05, **: p<0.01, ***: p<0.001. H1666 is reported to harbor IFNA1 homodeletion in COSMIC (Catalogue Of Somatic Mutations In Cancer)-v90 http://cancer.sanger.ac.uk/cosmic (Updated 5 Sep. 2019), also in Data from a CPRIT (Cancer Prevention & Research Institute of Texas)-funded NGS (next generation sequencing) project by Dr. John Minna, UT Southwestern Medical Center, and Data from Dr. Adi Gazdar, UT Southwestern Medical Center. All other cell lines used in this research were searched on those databases above and confirmed to harbor neither IFNA1 nor IFNB1 homodeletion. Western blots are representative of 3 independent experiments with similar results. Cropped images are shown. Uncropped Western blot images are shown in Source Data.
The protein concentration of IFNα1 and IFNβ1 in cell lysates were measured by ELISA. […]
IFNA1 andIFNB1 mRNA levels were tested by qPCR. IκBα-DN overexpression was detected by Western blot. […]
Referring to FIGS. 14T-U, H1975 cells were treated with 0.1 µM Afatinib for indicated time points, IFNA1 and IFNB1 mRNA levels were detected by qPCR.

TBK1 and IRF3 = experiment: Western blot for TBK1 and IRF3 activation in NSCLC cell lines; type: cell-based; details: EGFR mutant cells; 0.1 µM erlotinib and 1 µM BX795, 24 hours
Protocol: (§2) Western blot and immunoprecipitation were performed according to standard protocols. Western blot results are representative of at least 3 independent experiments. EGFR (06-847) antibody was from EMD Millipore (Billerica, MA); p-EGFR (Tyr1068) (2236), p-TBK1 (Ser172) (5483), TBK1 (3504), IKKε (2905), IRF3 (11904), K63-Ub (12930), RIG-I (3743), STAT1 (9172), p-STAT1 (Tyr701) (9167), AhR (83200), LAMIN A/C (4777), STING (3337), p-STING (Ser366) (19781), PD1 (86163), PD-L1 (13684), PD-L2 (82723) and IκBα (4814) antibodies were from Cell Signaling Technology (Danvers, MA); IFNAR1 (sc-7391), IFNGR1 (sc-12755), TNFR1 (sc-8346), and β-Actin (sc-47778) were from Santa Cruz Biotechnology (Dallas, TX); TRIM32 (Mab6515) antibody was from R&D (Minneapolis, MN); p-IRF3 (Ser386) (ab76493) antibody was from Abcam (Cambridge, MA).

IRF3 = experiment: ISRE / IFI27-ISRE luciferase reporter assay; type: cell-based; details: EGFR mutant cells; erlotinib 0.1 µM and 1 µM BX795, 24 h
Protocol: (§3) Cells were plated in 48 well dishes followed by plasmid transfection with two reporters detecting activation of IRF3, ISRE-luciferase reporter or IFI27-ISRE luciferase reporter^22, using lipofectamine 2000. A dual-luciferase reporter assay system was used according to the instructions of the manufacturer (Promega, Madison WI). Firefly luciferase activity was measured in the POLARstar Omega Microplate Reader (BMG LABTECH) and normalized based on Renilla luciferase activity. Three independent experiments were done in triplicate.

NF-κB = NF-κB luciferase reporter assay, TNF stimulation; type: cell-based; details: EGFR mutant lines; 10 µg/mL Etanercept 1 h, then 10 ng/mL TNF 24 h
Protocol: as §3
Referring to FIG. 16G and FIG. 16H, EGFR mutant lines were transfected with an NF-κB reporter for 48 h, followed by 10 µg/mL Etanercept for 1 h and then 10 ng/mL TNF for 24 h, followed by a luciferase assay or Western blot.

PD-L1 = experiment: Western blot for PD-L1 in NSCLC cell lines; type: cell-based; details: HCC827 and H3255; 100 or 10 nM erlotinib 24 h, 10 µg/mL Anifrolumab
Protocol: as §2
PD-1, PD-L1, and PD-L2 expression was detected by Western blot. PD-L1 expression levels were partly shown above. Signalstrength was represented by symbols. -: undetected, +: weak, ++: expressed, +++: strong signals. Western blot and Immunofluorescent staining images are representative of 3 independent experiments with similar results. Cropped images are shown. Uncropped Western blot images are shown in Source Data.

[3] = tested on: HCC827 derived ER3, ER4A, ER4B, ER5; experiment: AlamarBlue assay in HCC827-derived erlotinib-resistant lines; type: cell-based; details: 10 µg/mL Anifrolumab with erlotinib, 72 hours
Protocol: as §1
(§4) IFNAR1 siRNA was confirmed by Western blot.

EGFRwt NSCLC cell lines = experiment: AlamarBlue cell viability assay, EGFRwt NSCLC cell lines; type: cell-based; details: 72 h
Protocol: as §1
Western blot confirming the silencing of IFNAR1.
Data represents mean ± S.E.M. of three independent repeated experiments. *: p<0.05, **: p<0.01, ***: p<0.001, by two-way ANOVA adjusted by Bonferroni’s correction. Western blots are representative of 3 independent experiments with similar results. Cropped images are shown. Uncropped Western blot images are shown in Source Data.

STAT1 = experiment: Western blot for total and phosphorylated STAT1; type: cell-based; details: 0.1 or 1 µM erlotinib with 10 µg/mL Anifrolumab
Protocol: as §2
Cell lysates were collected and subjected to Western blot for detection of total and phosphorylated STAT1 expression. β-Actin was the loading control.

H1975 cells = experiment: AlamarBlue assay in H1975 cells; type: cell-based; details: 10 µg/mL Anifrolumab with 0.1 µM Afatinib, 72 hours
Protocol: as §1, §4

[4] = EGFR mutant cell lines, 0.1 µM erlotinib 24 h, Etanercept 10 µg/mL

Molecule: Cc1ccc2nc(NCCN)c3ncc(C)n3c2c1 [BMS-345541]
- effect on pro-survival effect of exogenous Type I IFNs under EGFR inhibition ([1]; 0.1 µM erlotinib): fail to abrogate the protective effect of type I IFNs
- effect on erlotinib-induced upregulation of IFN ([2]; EGFRwt cell lines, 1 µM erlotinib 24 h): blocks EGFR inhibition-induced upregulation of IFN

Molecule: O=C(NCCCNc1nc(Nc2cccc(NC(=O)N3CCCC3)c2)ncc1I)c1cccs1 [BX-795]
- combination with EGFR inhibition in cell viability assays ([1]; four EGFR mutant cell lines, 0.01 µM erlotinib and 1 µM BX795, 72 hours): synergized with EGFR inhibition
- effect on erlotinib-induced upregulation of IFN [2, 4]: completely suppressed erlotinib-induced upregulation of IFN
- effect on EGFR inhibition-induced IRF3 phosphorylation (TBK1 and IRF3): loss of EGFR inhibition-induced IRF3 phosphorylation
- effect on erlotinib-induced IRF3 transcriptional activity (IRF3): loss of erlotinib-induced IRF3 transcriptional activity

Molecule: Etanercept
- effect on pro-survival effect of exogenous Type I IFNs under EGFR inhibition ([1]; 0.1 µM erlotinib): fails to block the pro-survival effects of IFNs
- effect on erlotinib-induced upregulation of IFN [2, 4]: failed to inhibit erlotinib induced upregulation of type I IFNs
- effect on TNF-induced activation of NF-κB (NF-κB): efficiently blocked TNF-induced activation of NF-κB

B1: Anifrolumab: monoclonal antibody directed against IFNAR that inhibits the binding of Type I IFNs to its receptor (antibody, chains of the INN, looked up)
heavy: EVQLVQSGAEVKKPGESLKISCKGSGYIFTNYWIAWVRQMPGKGLESMGIIYPGDSDIRYSPSFQGQVTISADKSITTAYLQWSSLKASDTAMYYCARHDIEGFDYWGRGTLVTVSSASTKGPSVFPLAPSSKSTSGGTAALGCLVKDYFPEPVTVSWNSGALTSGVHTFPAVLQSSGLYSLSSVVTVPSSSLGTQTYICNVNHKPSNTKVDKRVEPKSCDKTHTCPPCPAPEFEGGPSVFLFPPKPKDTLMISRTPEVTCVVVDVSHEDPEVKFNWYVDGVEVHNAKTKPREEQYNSTYRVVSVLTVLHQDWLNGKEYKCKVSNKALPASIEKTISKAKGQPREPQVYTLPPSREEMTKNQVSLTCLVKGFYPSDIAVEWESNGQPENNYKTTPPVLDSDGSFFLYSKLTVDKSRWQQGNVFSCSVMHEALHNHYTQKSLSLSPG
light: EIVLTQSPGTLSLSPGERATLSCRASQSVSSSFFAWYQQKPGQAPRLLIYGASSRATGIPDRLSGSGSGTDFTLTITRLEPEDFAVYYCQQYDSSAITFGQGTRLEIKRTVAAPSVFIFPPSDEQLKSGTASVVCLLNNFYPREAKVQWKVDNALQSGNSQESVTEQDSKDSTYSLSSTLTLSKADYEKHKVYACEVTHQGLSSPVTKSFNRGEC
- effect on erlotinib-induced upregulation of PD-L1 (PD-L1): abrogated
- sensitivity to erlotinib in secondary resistant lines [3]: restore sensitivity to erlotinib
- sensitivity to erlotinib (cell viability) (EGFRwt NSCLC cell lines; EGFRwt lines with Ros1 mutation, EML4/ALK fusion, Met amplification, Braf mutation, 10 µg/mL Anifrolumab): resulted in sensitivity to erlotinib
- sensitivity to erlotinib (cell viability) (EGFRwt NSCLC cell lines; resistant EGFRwt/KRas cell lines, 1 µM erlotinib with 10 µg/mL Anifrolumab): enhanced sensitivity to erlotinib
- effect on erlotinib induced activation of STAT1 (STAT1): blocks erlotinib induced activation of STAT1
- sensitivity to afatinib (H1975 cells): rendered sensitive to afatinib

B2: IFNα: Recombinant human IFNα1, exogenous Type I interferon (protein, UniProt P01562 24-189, looked up)
Interferon alpha-1/13: CDLPETHSLDNRRTLMLLAQMSRISPSSCLMDRHDFGFPQEEFDGNQFQKAPAISVLHELIQQIFNLFTTKDSSAAWDEDLLDKFCTELYQQLNDLEACVMQEERVGETPLMNADSILAVKKYFRRITLYLTEKKYSPCAWEVVRAEIMRSLSLSTNLQERLRRKE
- protection from erlotinib-induced cell death ([1]; EGFR mutant cell lines, 0.1 µM erlotinib, IFNα1 or IFNβ1 50 ng/mL, 72 h): protects NSCLC cells with mutant EGFR activating from cell death
